For one test, the target named is T1, hNav1.1 (Homo sapiens, UniProt P35498).
T1 construct: host or cells: Xenopus oocytes (cRNA injection)
As to the kind of experiment: Two-electrode voltage-clamp of hNav1.1 (+β1) in Xenopus oocytes. Format: cell-based. Particulars: for Effect on hNav1.1 opening (G/Gmax), in words / Effect on hNav1.1 steady-state inactivation, in words / Effect on hNav1.1 persistent current / Depolarizing shift in hNav1.1 channel activation voltage: 100 μM; for Effect on hNav1.1 opening (G/Gmax), in words / Depolarizing shift in hNav1.1 channel activation voltage: versus DMSO; for Inactivation (V1/2) hNav1.1 / Activation (V1/2) hNav1.1: 100 μM drug; for Inactivation (V1/2) hNav1.1: steady-state inactivation; for Activation (V1/2) hNav1.1: ≤1% DMSO, oocytes incubated at least one hour; for Effect on hNav1.1 persistent current: end of 50 ms test pulse. For orientation: Two-electrode voltage clamp holds a large cell at a set potential and records current.

The target in a further test is T2, hNav1.3 (Homo sapiens, UniProt Q9NY46).
T2 construct: host or cells: Xenopus oocytes (cRNA injection)
The test is described as follows: Two-electrode voltage-clamp of hNav1.3 (+β1) in Xenopus oocytes. Particulars: for Effect on hNav1.3 opening/gating, in words: 100 μM, versus DMSO; for Inactivation (V1/2) hNav1.3 / Activation (V1/2) hNav1.3: 100 μM drug; for Inactivation (V1/2) hNav1.3: steady-state inactivation; for Activation (V1/2) hNav1.3: ≤1% DMSO. The test is classed as cell-based.

In a further test the target is T3, hNav1.2 (Homo sapiens, UniProt Q99250).
T3 construct: host or cells: Xenopus oocytes (cRNA injection)
As to the kind of experiment: Two-electrode voltage-clamp of hNav1.2 (+β1) in Xenopus oocytes. Format: cell-based. Particulars: for Effect on hNav1.2 opening/gating, in words: 100 μM, versus DMSO; for Inactivation (V1/2) hNav1.2 / Activation (V1/2) hNav1.2: 100 μM drug; for Inactivation (V1/2) hNav1.2: steady-state inactivation; for Activation (V1/2) hNav1.2: ≤1% DMSO.

In the next test the target is T4, hNav1.6 (Homo sapiens, UniProt Q9UQD0).
T4 construct: host or cells: Xenopus oocytes (cRNA injection)
The test is described as follows: Two-electrode voltage-clamp of hNav1.6 (+β1) in Xenopus oocytes. Format: cell-based. To be noted: for Inactivation (V1/2) hNav1.6 / Activation (V1/2) hNav1.6: 100 μM drug; for Inactivation (V1/2) hNav1.6: steady-state inactivation; for Activation (V1/2) hNav1.6: ≤1% DMSO.

Test [1] has as its system 6 Hz psychomotor seizures in male Crl:CF1 mice. The test is described as follows: 6 Hz psychomotor seizure induction. Format: in vivo, mouse. Particulars: 17 mA. As to the method: (§1) Animal husbandry and drug administration. Male Crl:CF1 mice (10-12 weeks old, Charles River) were housed under a 12 hour light-dark cycle with free access to food and water and all experiments were carried out between 10 am and 4 pm. 1-[phenyl-methyl]-1H-1,2,3-triazole-4-carboxamide-5-methyl (Compound B) (Sigma Aldrich) was suspended in a 40% solution of cyclodextrin (Sigma Aldrich) in sterile saline (0.9%) and 15 minutes prior to each seizure induction paradigm, 75 mg/kg of compound B was administered via intraperitoneal injection (ip) injection. Vehicle treated animals were similarly administrated 40% cyclodextrin and served as the controls for each experiment. The Emory University Institutional Animal Care and Use Committee approved all experimental protocols involving mice.
6 Hz psychomotor seizure induction. Topical anesthetic (0.5% tetracaine hydrochloride ophthalmic solution) was applied to the cornea 30 minutes before testing. Fifteen minutes prior to seizure induction, mice were administrated vehicle or compound B (n=12 per group). Each mouse was manually restrained and corneal stimulation (0.2 ms pulse, 6 Hz, 3 s) was performed at a current intensity of 17 mA (ECT Unit 57800; Ugo Basile, Comerio Italy). […]

Another test addresses T5, α1/β2/γ2 GABAA receptor (Homo sapiens, UniProt P14867+P18507+P47870).
T5 construct: expressed in transfected cells; host or cells: oocytes
The test is described as follows: GABAA receptor activation in oocytes held at −70 mV. The test is classed as cell-based.

Test [2] relates to flurothyl-induced seizures in male Crl:CF1 mice. As to the kind of experiment: Flurothyl seizure induction. To be noted: 75 mg/kg ip, p=0.6. Format: in vivo, mouse. As to the method: as §1
Flurothyl Seizure induction. Latencies to flurothyl-induced seizures were determined as previously described (Neurobiol Dis 49C, 211-220 (2012)). Briefly, flurothyl (2,2,2-trifluroethylether; Sigma Aldrich) was dispensed at a rate of 20 μl/minute into a Plexiglas chamber and latencies to three behavioral phenotypes were compared between vehicle-treated and compound B-treated (75 mg/kg) mice (n=12 per group): 1) the first myoclonic jerk, 2) a generalized tonic-clonic seizure, and 3) a generalized tonic-clonic seizure with tonic extension. […]

For test [3], the system named is picrotoxin-induced seizures in male Crl:CF1 mice. As to the kind of experiment: Picrotoxin seizure induction. The test is classed as in vivo, mouse. Particulars: 75 mg/kg ip. As for the experimental part:
as §1
Seizure induction paradigms and analyses. Picrotoxin seizure induction—15 minutes prior to i.p. injection of picrotoxin (10 mg/kg, Sigma Aldrich), mice were administered vehicle or compound B (n=12 per group). Latencies to the first myoclonic jerk, forelimb clonus, and generalized tonic-clonic seizure were compared between compound B and vehicle-treated mice. The myoclonic jerk is characterized by a sudden jerk of the upper body whereas forelimb clonus involves rapid movement of the forelimbs for at least 5 s. Finally, the generalized tonic-clonic seizure involves the loss of postural control with rapid movement of the limbs for at least 5 s.
Statistical analysis. A Student's t-test was used to identify statistically significant differences in latencies between vehicle- and compound B-treated groups for each seizure phenotype following administration of flurothyl and picrotoxin. […] All data are presented as the mean±s.e.m.; p values <0.05 were considered significant.

In the next test the target is Nav1.7 (Homo sapiens, UniProt Q15858). Particulars: reported by other researchers; cited from earlier work.
Chain of Nav1.7 (Q15858 whole entry): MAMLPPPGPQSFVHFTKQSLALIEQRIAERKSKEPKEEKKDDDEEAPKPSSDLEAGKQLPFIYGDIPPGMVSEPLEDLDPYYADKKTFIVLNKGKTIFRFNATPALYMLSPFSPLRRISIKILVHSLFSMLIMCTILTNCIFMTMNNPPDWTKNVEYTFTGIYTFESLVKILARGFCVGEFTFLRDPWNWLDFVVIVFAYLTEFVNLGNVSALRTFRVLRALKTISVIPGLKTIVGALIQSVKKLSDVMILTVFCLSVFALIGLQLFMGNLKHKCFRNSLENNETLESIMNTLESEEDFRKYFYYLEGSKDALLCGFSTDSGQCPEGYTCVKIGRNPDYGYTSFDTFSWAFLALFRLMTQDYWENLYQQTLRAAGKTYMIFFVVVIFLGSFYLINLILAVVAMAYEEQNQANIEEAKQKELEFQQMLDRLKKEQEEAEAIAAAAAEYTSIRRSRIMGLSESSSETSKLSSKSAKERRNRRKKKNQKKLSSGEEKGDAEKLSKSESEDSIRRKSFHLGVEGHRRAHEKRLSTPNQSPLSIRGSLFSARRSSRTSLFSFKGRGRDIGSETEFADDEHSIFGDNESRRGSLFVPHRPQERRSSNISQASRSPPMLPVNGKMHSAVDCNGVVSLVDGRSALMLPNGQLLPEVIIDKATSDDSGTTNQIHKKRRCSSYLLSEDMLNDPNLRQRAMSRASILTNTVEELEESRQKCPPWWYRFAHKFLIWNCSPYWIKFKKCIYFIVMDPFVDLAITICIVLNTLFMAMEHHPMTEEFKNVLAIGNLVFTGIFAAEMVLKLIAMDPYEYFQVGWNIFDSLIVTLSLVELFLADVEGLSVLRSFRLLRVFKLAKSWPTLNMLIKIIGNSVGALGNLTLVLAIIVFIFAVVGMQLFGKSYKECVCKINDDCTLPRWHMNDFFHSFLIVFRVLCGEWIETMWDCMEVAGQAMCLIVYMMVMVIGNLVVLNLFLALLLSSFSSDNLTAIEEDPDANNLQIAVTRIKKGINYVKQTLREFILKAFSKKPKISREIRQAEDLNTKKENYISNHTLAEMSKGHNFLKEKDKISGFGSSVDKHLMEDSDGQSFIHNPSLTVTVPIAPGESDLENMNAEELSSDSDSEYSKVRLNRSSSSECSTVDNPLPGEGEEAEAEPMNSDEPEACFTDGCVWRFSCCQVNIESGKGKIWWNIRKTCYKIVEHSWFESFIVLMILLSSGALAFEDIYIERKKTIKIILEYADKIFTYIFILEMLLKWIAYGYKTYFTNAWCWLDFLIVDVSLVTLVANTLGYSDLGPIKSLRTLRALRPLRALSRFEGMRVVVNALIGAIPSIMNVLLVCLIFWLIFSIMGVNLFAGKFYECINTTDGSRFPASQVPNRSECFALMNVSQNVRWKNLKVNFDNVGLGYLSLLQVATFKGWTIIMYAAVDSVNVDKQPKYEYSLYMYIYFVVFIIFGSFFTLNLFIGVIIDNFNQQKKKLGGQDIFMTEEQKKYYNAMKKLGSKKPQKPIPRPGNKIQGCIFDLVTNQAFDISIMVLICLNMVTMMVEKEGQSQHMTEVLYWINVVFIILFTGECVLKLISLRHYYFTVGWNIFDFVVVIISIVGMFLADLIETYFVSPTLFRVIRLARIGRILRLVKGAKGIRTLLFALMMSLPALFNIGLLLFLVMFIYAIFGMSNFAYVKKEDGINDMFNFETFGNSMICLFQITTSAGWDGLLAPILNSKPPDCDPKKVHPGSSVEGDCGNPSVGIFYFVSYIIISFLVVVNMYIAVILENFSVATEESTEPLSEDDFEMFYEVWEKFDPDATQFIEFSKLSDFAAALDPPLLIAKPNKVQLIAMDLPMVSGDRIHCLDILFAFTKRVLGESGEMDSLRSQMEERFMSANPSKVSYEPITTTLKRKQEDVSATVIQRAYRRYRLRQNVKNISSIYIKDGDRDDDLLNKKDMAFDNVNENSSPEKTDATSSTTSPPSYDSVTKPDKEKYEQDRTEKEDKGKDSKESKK

T5 sequence (P14867 28-456): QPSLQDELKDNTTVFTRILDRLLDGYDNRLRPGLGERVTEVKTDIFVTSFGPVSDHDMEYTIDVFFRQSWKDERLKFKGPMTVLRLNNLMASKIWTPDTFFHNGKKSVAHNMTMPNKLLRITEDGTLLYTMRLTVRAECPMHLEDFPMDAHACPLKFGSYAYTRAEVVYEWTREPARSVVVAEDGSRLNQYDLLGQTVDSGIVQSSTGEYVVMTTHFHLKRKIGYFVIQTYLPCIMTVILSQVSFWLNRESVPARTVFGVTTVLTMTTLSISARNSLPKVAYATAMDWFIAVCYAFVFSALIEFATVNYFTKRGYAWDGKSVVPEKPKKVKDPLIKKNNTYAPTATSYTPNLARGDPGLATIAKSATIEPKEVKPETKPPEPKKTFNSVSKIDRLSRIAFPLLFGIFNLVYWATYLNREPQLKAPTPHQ
T5 sequence (P47870 25-512 limits assumed): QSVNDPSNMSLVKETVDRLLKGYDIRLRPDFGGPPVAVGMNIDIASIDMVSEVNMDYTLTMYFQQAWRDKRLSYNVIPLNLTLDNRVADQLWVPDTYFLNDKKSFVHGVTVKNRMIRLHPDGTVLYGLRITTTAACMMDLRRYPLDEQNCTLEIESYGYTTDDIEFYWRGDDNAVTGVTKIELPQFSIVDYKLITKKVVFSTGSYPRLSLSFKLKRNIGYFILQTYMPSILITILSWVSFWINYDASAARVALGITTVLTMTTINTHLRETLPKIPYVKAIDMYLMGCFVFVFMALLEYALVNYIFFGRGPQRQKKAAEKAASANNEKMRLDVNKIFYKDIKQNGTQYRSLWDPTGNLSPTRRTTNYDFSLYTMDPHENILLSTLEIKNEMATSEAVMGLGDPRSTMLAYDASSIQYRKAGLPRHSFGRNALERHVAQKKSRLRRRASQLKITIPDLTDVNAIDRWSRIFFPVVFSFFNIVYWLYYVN
T5 sequence (P18507 40-475): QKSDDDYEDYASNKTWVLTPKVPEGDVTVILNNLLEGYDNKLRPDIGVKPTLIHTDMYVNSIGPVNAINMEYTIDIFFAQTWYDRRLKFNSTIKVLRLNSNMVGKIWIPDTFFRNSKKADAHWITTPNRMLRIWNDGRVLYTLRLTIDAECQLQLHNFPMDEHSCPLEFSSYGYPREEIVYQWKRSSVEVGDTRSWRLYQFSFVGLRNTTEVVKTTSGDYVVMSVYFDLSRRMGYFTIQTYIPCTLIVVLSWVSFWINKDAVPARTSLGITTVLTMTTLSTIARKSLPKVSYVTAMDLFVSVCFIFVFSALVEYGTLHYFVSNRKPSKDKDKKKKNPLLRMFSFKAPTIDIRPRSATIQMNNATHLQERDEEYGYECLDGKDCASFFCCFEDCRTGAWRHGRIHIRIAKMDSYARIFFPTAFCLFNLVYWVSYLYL

Take “1-[(2,6-difluorophenyl)methyl]-1H-1,2,3-triazole-carboxymethyl-5-methyl [Compound L]”: the “Effect on hNav1.1 opening (G/Gmax), in words” value (“Effect on hNav1.1 opening” below) on hNav1.1 is listed as “only slightly inhibits”. Besides, the “Effect on hNav1.3 opening/gating, in words” value at hNav1.3 is recorded as “not significant”. The “Effect on hNav1.2 opening/gating, in words” value on hNav1.2 is given as “not significant”. For the same molecule, at hNav1.6 (100 μM), the “Effect on hNav1.6 steady-state inactivation, in words” value is “dramatically affect”.

As for `NC(=O)c1nnn(Cc2cccc(F)c2)c1N` [Compound A, 1-[(3-fluorophenyl)methyl]-1H-1,2,3-Triazole-4-carboxamide-5-amine], at hNav1.1, the “Effect on hNav1.1 steady-state inactivation, in words” value is “neither of these compounds influences”; the “Inactivation (V1/2) hNav1.1” value is −50.5 ± 1.2 mV^; the “Activation (V1/2) hNav1.1” value is −30.8 ± 1.0 mV**; the “Effect on hNav1.1 persistent current” value was “neither of these compounds influences”. Also, the “Effect on hNav1.1 opening” value on hNav1.1 is “clearly inhibit”.

With `Cc1c(C(N)=O)nnn1Cc1ccccc1` [Compound B, 1-[phenyl-methyl]-1H-1,2,3-Triazole-4-carboxamide-5-methyl], at hNav1.1, the “Effect on hNav1.1 steady-state inactivation, in words” value is on record as “neither of these compounds influences”; the “Inactivation (V1/2) hNav1.1” value is listed as −49.4 ± 0.3 mV^; the “Activation (V1/2) hNav1.1” value is reported as −27.4 ± 1.0 mV**; the “Effect on hNav1.1 persistent current” value was “neither of these compounds influences”. On hNav1.1, the “Depolarizing shift in hNav1.1 channel activation voltage” value is listed as “~+11 mV” and the “Effect on hNav1.1 opening” value was “clearly inhibit”. In addition, the “Effect on hNav1.1 persistent current” value on hNav1.1 (listed as compound B) was “do not affect”. In addition, at hNav1.3, the “Inactivation (V1/2) hNav1.3” value is listed as −50.0 ± 0.8 mV; the “Activation (V1/2) hNav1.3” value is given as −25.8 ± 1.4 mV; the “Effect on hNav1.3 opening/gating, in words” value was “unaltered”. For the same molecule, the “Seizure severity (modified Racine scale) versus vehicle, 6 Hz” value in [1] (75 mg/kg ip) is “dramatically less severe”. In addition, in test [1] (versus vehicle), the “Reduction in the number of mice exhibiting seizures, 6 Hz” value was found to be 63%. The “Activation of α1/β2/γ2 GABAA receptor” value at α1/β2/γ2 GABAA receptor (100 μM) is listed as “do not activate”. Further, in [2], the “Average latency to MJ versus vehicle, flurothyl” value is recorded as “comparable”. Also, in [3], the “Frequency of behavioral seizures versus vehicle, picrotoxin” value is “no difference”. Also, the “Average latency to forelimb clonus (FC) versus vehicle, picrotoxin” value in test [3] (p=0.3) is recorded as “no statistically significant differences”. In addition, the “Average latency to first myoclonic jerk (MJ) versus vehicle, picrotoxin” value in test [3] (p=0.4) is “no statistically significant differences”. Besides, on hNav1.2, the “Inactivation (V1/2) hNav1.2” value is −53.6 ± 1.2 mV; the “Activation (V1/2) hNav1.2” value was −23.6 ± 1.1 mV; the “Effect on hNav1.2 opening/gating, in words” value is reported as “unaltered”. For the same molecule, at hNav1.6, the “Inactivation (V1/2) hNav1.6” value was −62.6 ± 0.7 mV and the “Activation (V1/2) hNav1.6” value is −23.8 ± 1.9 mV. The “Effect on hNav1.6 opening/gating, in words” value on hNav1.6 (100 μM, versus DMSO) is “unaltered”.

In the case of `OCc1cn(Cc2cccc(F)c2)nn1` [Compound C, 1-[(3-fluorophenyl)methyl]-1H-1,2,3-Triazole-4-hydroxymethyl], at hNav1.1, the “Inactivation (V1/2) hNav1.1” value was −49.2 ± 0.6 mV; the “Activation (V1/2) hNav1.1” value was −38.4 ± 1.3 mV; the “Effect on hNav1.1 opening” value is “no longer affects”.

Take `NC(=O)c1nnn(Cc2ccc(F)cc2)c1N` [Compound D, 1-[(4-fluorophenyl)methyl]-1H-1,2,3-Triazole-4-carboxamide-5-amine]: at hNav1.1, the “Inactivation (V1/2) hNav1.1” value is recorded as −49.8 ± 1.6 mV; the “Activation (V1/2) hNav1.1” value is recorded as −32.5 ± 2.3 mV; the “Effect on hNav1.1 opening” value is listed as “not significant”.

As for `CCc1c(C(N)=O)nnn1Cc1ccccc1` [Compound F, 1-(phenylmethyl)-1H-1,2,3-triazole-4-carboxamide-5-ethyl], at hNav1.1, the “Effect on hNav1.1 steady-state inactivation, in words” value is “does not influence”; the “Effect on hNav1.1 persistent current” value is “does not influence”; the “Depolarizing shift in hNav1.1 channel activation voltage” value is recorded as “~+12 mV”; the “Effect on hNav1.1 opening” value is reported as “inhibits hNav1.1 opening”. For the same molecule, the “Effect on hNav1.3 opening/gating, in words” value on hNav1.3 is recorded as “not significant”. Moreover, the “Effect on hNav1.2 opening/gating, in words” value at hNav1.2 is on record as “not significant”. For the same molecule, the “Effect on hNav1.6 opening/gating, in words” value on hNav1.6 (100 μM, versus DMSO) is “not significant”.

In the case of `COC(=O)c1nnn(Cc2c(F)cccc2F)c1C` [Compound L, 1-[(2,6-difluorophenyl)methyl]-1H-1,2,3-triazole-carboxymethyl-5-methyl], at hNav1.1, the “Effect on hNav1.1 opening” value was “much smaller compared to compound B”. In addition, the “Shift of hNav1.6 steady-state inactivation / channel availability midpoint” value at hNav1.6 (100 μM, versus DMSO) was ~−20 mV.

Regarding `NC(=O)c1cn(Cc2c(F)cccc2F)nn1` [Rufinamide, 1-[(2,6-difluorophenyl)methyl]-1H-1,2,3-Triazole-4-carboxamide, reference compound], at hNav1.1, the “Effect on hNav1.1 steady-state inactivation, in words” value is given as “not influenced”; the “Inactivation (V1/2) hNav1.1” value was −47.8 ± 1.6 mV; the “Activation (V1/2) hNav1.1” value is on record as −30.6 ± 0.9 mV**; the “Effect on hNav1.1 persistent current” value is on record as “do not affect”. Moreover, the “Effect on hNav1.1 opening” value at hNav1.1 was “dramatic depolarizing shift”. Also, on hNav1.3, the “Inactivation (V1/2) hNav1.3” value was −52.6 ± 1.6 mV; the “Activation (V1/2) hNav1.3” value was −24.5 ± 2.4 mV; the “Effect on hNav1.3 opening/gating, in words” value is on record as “not inhibited”. Further, the “Activation of α1/β2/γ2 GABAA receptor” value at α1/β2/γ2 GABAA receptor (100 μM) is “do not activate”. The “Effect on Nav1.7 inactivated state” value at Nav1.7 is recorded as “stabilizes the inactivated state”. In addition, on hNav1.2, the “Inactivation (V1/2) hNav1.2” value is recorded as −57.7 ± 0.5 mV; the “Activation (V1/2) hNav1.2” value is recorded as −29.5 ± 1.2 mV; the “Effect on hNav1.2 opening/gating, in words” value is given as “not inhibited”. Further, at hNav1.6, the “Inactivation (V1/2) hNav1.6” value is given as −60.0 ± 0.7 mV** and the “Activation (V1/2) hNav1.6” value is listed as −28.1 ± 0.8 mV. At hNav1.6 (100 μM, versus DMSO), the “Effect on hNav1.6 opening/gating, in words” value is given as “not inhibited”.

Consider `NCc1cc(=O)[nH]o1` [muscimol], for which the “Activation of α1/β2/γ2 GABAA receptor” value at α1/β2/γ2 GABAA receptor (5 μM) is listed as “activates”.

The values are drawn from patent US9505727B2 (THE JOHNS HOPKINS UNIVERSITY, priority 2013, dated 2016).
